Results: US20120058999A1, “Substituted Tetrahydropyrrolopyrazine Compounds” (Gruenenthal GmbH, priority 2010, published 2012)

Assays:
rat B1R = biological target: T1, rat B1R (Rattus norvegicus, UniProt P97583); experiment: Functional investigation on the bradykinin 1 receptor, cell-based fluorescent calcium-mobilization assay (FLIPR), rat; settings: 10 μM test substance; CHO K1 cells transfected with rat B1R gene; agonist Des-Arg9-bradykinin at EC80; % of maximum achievable inhibition
T1 construct: expressed in transfected cells; host or cells: CHO K1 cells (stably transfected)
T1 sequence (P97583 1-337): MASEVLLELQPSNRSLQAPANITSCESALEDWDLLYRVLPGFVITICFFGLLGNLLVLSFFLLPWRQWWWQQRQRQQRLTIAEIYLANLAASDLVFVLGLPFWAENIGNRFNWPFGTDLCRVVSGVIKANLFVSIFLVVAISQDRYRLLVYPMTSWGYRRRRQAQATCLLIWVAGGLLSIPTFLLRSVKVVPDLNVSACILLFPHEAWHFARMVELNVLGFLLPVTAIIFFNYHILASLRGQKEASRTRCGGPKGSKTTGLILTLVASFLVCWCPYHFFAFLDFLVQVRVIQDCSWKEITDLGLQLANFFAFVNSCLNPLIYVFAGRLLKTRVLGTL
Procedure: (§1) The agonistic or antagonistic action of substances can be quantified on the bradykinin 1 receptor (B1R) of the human and rat species with ectopically expressing cell lines (CHO K1 cells) and with the aid of a Ca2+-sensitive dye (Fluo-4) using a fluorescent imaging plate reader (FLIPR). The value in % activation is based on the Ca2+ signal after addition of Lys-Des-Arg9 bradykinin (0.5 nM) or Des-Arg9 bradykinin (100 nM). Antagonists lead to a suppression of the Ca2+ influx following administration of the agonist. The % inhibition in comparison with the maximum achievable inhibition is indicated.
(§2) The agonistic or antagonistic action of substances can be determined on the bradykinin 1 receptor (B1R) of humans and rats by means of a cell-based fluorescent calcium-mobilization assay. According to this assay agonist-induced increase of intracellular free Ca^2+ is quantified by means of a Ca^2+-sensitive dye (Fluo-4 type, Molecular Probes Europe BV, Leiden, Netherlands), in a Fluorescent Imaging Plate Reader (FLIPR, Molecular Devices, Sunnyvale, USA) and/or the Novostar (BMG Labtech GmbH, Offenburg, Germany).
(§3) Chinese hamster ovary cells (CHO K1 cells), which are stably transfected with the human B1R gene (hB1R cells), or with the B1R gene of rats (rB1R cells) are used. For functional investigations these cells are seeded into black 96-well plates with a clear bottom (BD Biosciences, Heidelberg, Germany or Greiner, Frickenhausen, Germany) in a density of 20,000-35,000 cells/well. The cells are incubated overnight in a humidified atmosphere at 37° C. and 5% CO2 in culture medium (hB1R cells: Nutrient Mixture Ham's F12, Gibco Invitrogen GmbH, Karlsruhe, Germany or DMEM, Sigma-Aldrich, Taufkirchen, Germany; rB1R cells: D-MEM/F12, Gibco Invitrogen GmbH, Karlsruhe, Germany) with 10 vol. % FBS (foetal bovine serum, Gibco Invitrogen GmbH, Karlsruhe, Germany). On the following day the cells are loaded with the Ca^2+-sensitive dye Fluo-4-AM (Molecular Probes Europe BV, Leiden, Netherlands):
(§4) Method A: The medium of the cells is removed and cell plates are incubated with loading solution, which contains 2.13 μM Fluo-4-AM, 2.5 mM probenecid (Sigma-Aldrich, Taufkirchen, Germany), and 10 mM HEPES (Sigma-Aldrich, Taufkirchen, Germany) in HBSS buffer (Hank's buffered saline solution, Gibco Invitrogen GmbH, Karlsruhe, Germany) for 60 minutes at 37° C. After the plates are washed twice with HBSS buffer, HBSS buffer supplemented 0.1% BSA (bovine serum albumin; Sigma-Aldrich, Taufkirchen, Germany), 5.6 mM glucose and 0.05% gelatine (Merck KGaA, Darmstadt, Germany) is added. Cell plates are incubated for at least 20 minutes in the dark at room temperature before they are used for the Ca^2+ measurement in the FLIPR or Novostar. Method B: The plates are washed with buffer A (15 mM HEPES, 80 mM NaCl, 5 mM KCl, 1.2 mM CaCl2, 0.7 mM MgSO4, 2 mg/ml glucose, 2.5 mM probenecid) and subsequently loaded with buffer A containing 2.4 μM Fluo-4-AM and 0.025% pluronic F127 (Sigma-Aldrich, Taufkirchen, Germany) for 60 minutes at 37° C. Cell plates are washed twice with buffer A. Then, buffer A supplemented with 0.05% BSA and 0.05% gelatine is added and cell plates are incubated in the dark at room temperature for at least 20 minutes before measurement in the FLIPR or Novostar is started.
(§5) The Ca^2+-dependent fluorescence is measured both before and after the addition of substances (λex=488 nm, λem=540 nm). For quantification of the effect the highest fluorescence intensity (FC, fluorescence counts) over time is given.
(§6) The FLIPR protocol consists of two substance additions, done within the instrument while continuously monitoring the Ca^2+-dependent fluorescence at 540 nm. When the Novostar was used, one addition had to be done outside the instrument. First of all test substances (10 μM) are pipetted onto the cells and the intracellular Ca^2+ rise is compared with the control (hB1R: Lys-Des-Arg9-bradykinin >=50 nM; rB1R: Des-Arg9-bradykinin >=1 μM). […]

human B1R = biological target: T2, human B1R (Homo sapiens, UniProt P46663); experiment: Functional investigation on the bradykinin 1 receptor, cell-based fluorescent calcium-mobilization assay (FLIPR), human; settings: 10 μM test substance; CHO K1 cells transfected with human B1R gene; agonist Lys-Des-Arg9-bradykinin at EC80; % of maximum achievable inhibition
T2 construct: expressed in transfected cells; host or cells: CHO K1 cells (stably transfected)
T2 sequence (P46663 1-353): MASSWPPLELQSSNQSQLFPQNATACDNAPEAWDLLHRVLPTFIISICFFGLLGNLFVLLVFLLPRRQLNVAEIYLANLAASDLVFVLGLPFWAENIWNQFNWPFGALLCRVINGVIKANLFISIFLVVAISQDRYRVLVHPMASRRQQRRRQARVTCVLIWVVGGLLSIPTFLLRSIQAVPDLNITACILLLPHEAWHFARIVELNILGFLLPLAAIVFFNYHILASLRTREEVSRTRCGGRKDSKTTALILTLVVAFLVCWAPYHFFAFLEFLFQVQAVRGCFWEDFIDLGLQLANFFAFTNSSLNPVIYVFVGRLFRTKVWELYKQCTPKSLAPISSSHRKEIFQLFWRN
Procedure: as §1, §2, §3, §4, §5, §6

| SMILES | inhibition at 10 µM (rat B1R) [%] | inhibition at 10 µM (human B1R) [%] |
| --- | --- | --- |
| COc1cc(C)c(S(=O)(=O)N2CCn3cccc3C2CCCC(=O)N[C@H]2CCC[C@@H](N3CCN(C)CC3)C2)c(C)c1 (relative stereo) [CC-07, 4-[2-[(4-Methoxy-2,6-dimethyl-phenyl)sulfonyl]-1,2,3,4-tetrahydro-pyrrolo[1,2-a]pyrazin-1-yl]-N-[cis-3-(4-methyl-piperazin-1-yl)-cyclohexyl]-butyramide] | 101 | 86 |
| CN1CCN([C@@H]2CCC[C@H](NC(=O)CCC3c4cccn4CCN3S(=O)(=O)c3cccc(C(F)(F)F)c3)C2)CC1 (relative stereo) [CC-10, N-[cis-3-(4-Methyl-piperazin-1-yl)-cyclohexyl]-3-[2-[[3-(trifluoromethyl)phenyl]sulfonyl]-1,2,3,4-tetrahydro-pyrrolo[1,2-a]pyrazin-1-yl]-propionamide] | 36 | 29 |
| COc1cc(C)c(S(=O)(=O)N2CCn3cccc3C2COCC(=O)N(C)C2CC(N3CCN(C)CC3)C2)c(C)c1 (stereo not shown) [CC-58, 2-[[2-[(4-Methoxy-2,6-dimethyl-phenyl)sulfonyl]-1,2,3,4-tetrahydro-pyrrolo[1,2-a]pyrazin-1-yl]-methoxy]-N-methyl-N-[3-(4-methyl-piperazin-1-yl)-cyclobutyl]-acetamide] | 88 | 38 |
| COc1cc(C)c(S(=O)(=O)N2CCn3cccc3C2CCCC(=O)N(C)C2CC(N3CCN(C)CC3)C2)c(C)c1 (stereo not shown) [CC-59, 4-[2-[(4-Methoxy-2,6-dimethyl-phenyl)sulfonyl]-1,2,3,4-tetrahydro-pyrrolo[1,2-a]pyrazin-1-yl]-N-methyl-N-[3-(4-methyl-piperazin-1-yl)-cyclobutyl]-butyramide] | 97 | 80 |
| COc1ccc2cc(S(=O)(=O)N3CCn4cccc4C3CC(=O)N(C)C3CC(N4CCN(C)CC4)C3)ccc2c1 (stereo not shown) [CC-60, 2-[2-[(6-Methoxy-naphthalen-2-yl)sulfonyl]-1,2,3,4-tetrahydro-pyrrolo[1,2-a]pyrazin-1-yl]-N-methyl-N-[3-(4-methyl-piperazin-1-yl)-cyclobutyl]-acetamide] | 106 | 99 |
| CN1CCN(C2CC(N(C)C(=O)CCC3c4cccn4CCN3S(=O)(=O)c3cccc(C(F)(F)F)c3)C2)CC1 (stereo not shown) [CC-61, N-Methyl-N-[3-(4-methyl-piperazin-1-yl)-cyclobutyl]-3-[2-[[3-(trifluoromethyl)phenyl]sulfonyl]-1,2,3,4-tetrahydro-pyrrolo[1,2-a]pyrazin-1-yl]-propionamide] | 14 | 12 |

The remaining lines, values ahead:

| inhibition at 10 µM (rat B1R) [%] | inhibition at 10 µM (human B1R) [%] | SMILES |
| --- | --- | --- |
| 103 | 100 | COc1cc(C)c(S(=O)(=O)N2CCn3cccc3C2COCC(=O)N(C)[C@H]2CCC[C@@H](N3CCN(C)CC3)C2)c(C)c1 (stereo partly drawn) [SC-01, 2-[[2-[(4-Methoxy-2,6-dimethyl-phenyl)sulfonyl]-1,2,3,4-tetrahydro-pyrrolo[1,2-a]pyrazin-1-yl]-methoxy]-N-methyl-N-[(1S,3R)-3-(4-methyl-piperazin-1-yl)-cyclohexyl]-acetamide] |
| 105 | 100 | Cc1cccc(Cl)c1S(=O)(=O)N1CCn2cccc2C1COCC(=O)N(C)[C@H]1CCC[C@@H](N2CCN(C)CC2)C1 (stereo partly drawn) [SC-02, 2-[[2-[(2-Chloro-6-methyl-phenyl)sulfonyl]-1,2,3,4-tetrahydro-pyrrolo[1,2-a]pyrazin-1-yl]-methoxy]-N-methyl-N-[(1S,3R)-3-(4-methyl-piperazin-1-yl)-cyclohexyl]-acetamide] |
| 61 | 95 | Cc1cc(S(=O)(=O)N2CCn3cccc3C2CCC(=O)N(C)[C@H]2CCC[C@@H](N3CCN(C)CC3)C2)c(C)cc1Cl (stereo partly drawn) [SC-03, 3-[2-[(4-Chloro-2,5-dimethyl-phenyl)sulfonyl]-1,2,3,4-tetrahydro-pyrrolo[1,2-a]pyrazin-1-yl]-N-methyl-N-[(1S,3R)-3-(4-methyl-piperazin-1-yl)-cyclohexyl]-propionamide] |
| 100 | 101 | COc1cc(C)c(S(=O)(=O)N2CCn3cccc3C2COCC(=O)N(C)C2CCC(N3CCN(C)CC3)CC2)c(C)c1 (stereo not shown) [SC-05, 2-[[2-[(4-Methoxy-2,6-dimethyl-phenyl)sulfonyl]-1,2,3,4-tetrahydro-pyrrolo[1,2-a]pyrazin-1-yl]-methoxy]-N-methyl-N-[4-(4-methyl-piperazin-1-yl)-cyclohexyl]-acetamide] |
| 110 | 97 | COc1cc(C)c(S(=O)(=O)N2CCn3c(C)ccc3C2COCC(=O)N(C)[C@H]2CCC[C@@H](N3CCN(C)CC3)C2)c(C)c1 (stereo partly drawn) [SC-06, 2-[[2-[(4-Methoxy-2,6-dimethyl-phenyl)sulfonyl]-6-methyl-1,2,3,4-tetrahydro-pyrrolo[1,2-a]pyrazin-1-yl]-methoxy]-N-methyl-N-[(1S,3R)-3-(4-methyl-piperazin-1-yl)-cyclohexyl]-acetamide] |
